From patent US20150158914A1, “PEPTIDES, CONSTRUCTS AND USES THEREFOR” (priority 2010, published 2015)
Entries after “also recorded” stand apart in the source; their conditions may differ. Ends that are not written are not given here. * marks the point of attachment. FITC = O=C1OC2(c3ccc(O)cc3Oc3cc(O)ccc32)c2ccc(NC(=S)*)cc21

Columns and labels:
[1] = system: HepG2 cells; assay: Assay for cell permeability of X-protein peptides (fluorescence and confocal microscopy); format: cell-based, human; conditions: for uptake by HepG2 cells (cell permeability): FITC-labelled peptide 10 μM, 3 h, medium without FCS; for intracellular distribution (confocal slicing): FITC-labelled peptide, HepG2 cells
Protocol: The cells were then incubated overnight at 37° and 5% CO2, and then washed thrice with media without FCS. The X-protein peptide in 250 μl of appropriate media without FCS was added to the cells at a final concentration of 10 μM, and the slides incubated for 3 h at 37° C. and 5% CO2. The cells were washed with PBS, fixed with 4% formaldahyde in PBS for 30 min, and washed thrice with PBS. […] The slides were dried overnight in the dark, and examined by microscopy by using a Nikon E600 fluorescent microscope. Photos were taken using Nikon ACT-1 software. For further examination, slides were then examined by confocal microscopy using a Leica TCS-SP2 confocal microscope.

[2] = system: HepG2 cells; assay: Pathway of peptide entry: pretreatment with cytochalasin D or heparin; format: cell-based, human; conditions: 30 min pretreatment, 10 μM peptide, 3 h; for effect of heparin pretreatment on peptide entry: 2 μg/ml heparin
Protocol: Cells were plated overnight at 1×10^5 per well in eight chamber slides in complete MEM medium containing 10% FCS. The cells were washed thrice with MEM medium, and pretreated for 30 min with either 10 μm cytochalasin D or 2 μg/ml of heparin in MEM at 37° C. Peptide was then added at a concentration of 10 μM and cells were incubated for 3 h at 37° and 5% CO2. The cells were washed with PBS, fixed with 4% formaldehyde and PBS for 30 min, and a drop of Prolong Gold antifade reagent with DAPI (Invitrogen cat# P36931) was added to each well. The slides were dried overnight in the dark, and examined by microscopy by using a Nikon E600 fluorescent microscope. Photos were taken using Nikon ACT-1 software.
Exactly how cell-permeable peptides pass through the plasma membrane of cells is still not fully understood. […] Actin elongation on the cell surface leads to an extension of the plasma membrane into the extracellular environment. When the plasma membrane fuses back with itself it forms macropinosomes, and in doing so encapsulates and internalizes a large volume of extracellular fluid. Another mechanism is via the binding of peptides to cell surface heparan sulphate proteoglycans, which leads to internalization of the peptide through an endocytic process. HepG2 cells were pretreated with cytochalasin D and heparin, and then incubated with FITC-labelled cell permeable peptides aa 16-22, and aa 16-35 for 3 h to determine whether either of the above two mechanisms mediated cell uptake of the X-protein peptides. Control cells were treated with the X-protein peptides but were not treated with either chemical. Cytochalasin D is an F-actin elongation inhibitor, which inhibits macropinocytosis by inhibiting extension of the plasma membrane. Heparin would be expected to antagonize the binding of the peptides to cell surface heparan sulphate proteoglycans.

[3] = molecular target: T1, X-protein N-terminal peptide 1-50 (Hepatitis B virus genotype C subtype adr, UniProt Q81163, DEL44-44/P38S/S41A/S42F/V5L); assay: Peptide binding assay: FITC-peptides on peptide 1-50-coated plates; conditions: FITC-peptide at 10, 20, 40 μg/ml, 30 min
T1 construct: The parent peptide containing aa 1-50 conjugated N-terminally to a biotin tag; purchased; host or cells: chemical synthesis
Protocol: Qligomerization peptides were received in powdered form, and were weighed and diluted in a sterile 10% DMSO solution to make a 10 mg/ml stock solution. The wells of a Reactibind neutravidin-coated 96 well plate (Thermoscientific cat #15507) were thrice washed with 200 μl of plate washing buffer. Peptide 1-50, which contains a biotin tag, was diluted to 10 μg/ml in wash buffer and 100 μl of the solution was placed into each well being used. The plate was incubated at room temperature for 2 h, and the wells washed thrice with 200 μl of wash buffer. Truncated fluorescent variants of peptide 1-50 at 40 μg/ml, 20 μg/ml, and 10 μg/ml were added to the wells in triplicate, and the plates incubated at room temperature for 30 min. The wells were then washed thrice with 200 μl of wash buffer under low light conditions, and the plate read on a Biotek fluorescent plate reader at an excitation wavelength of 490 nm and an emission wavelength of 520 nm.
A ligand-binding assay was performed using streptavidin-coated plates in order to define the minimum peptide motif needed for dimerization of the X-protein. In this scenario the X-protein monomer serves as its own ligand. […] A series of short peptides from the region encoding aa 1-50 were synthesized. The parent peptide containing aa 1-50 conjugated N-terminally to a biotin tag was added to the streptavidin coated plates. […] Non-biotinylated peptides encoding aa 1-20, 16-35, 21-40 and 34-53 were added at 10, 20, and 40 μg/ml to the wells coated with peptide aa 1-50. The smaller peptides were each conjugated to a FITC tag for detection using a fluorescent plate reader. […] Binding performed with lesser concentrations of the peptides was not significant. Even smaller peptides encompassing that region 16-35 were made to determine whether the aa 16-35 was the minimum peptide motif needed for X-protein dimerization. These peptides synthesized, namely aa 16-26, 16-24, and 16-22 were analyzed using the same peptide binding assay. […] Thus of the peptides examined, the minimal peptide motif needed for dimerization of the X-protein is the […] peptide 16-35.

Substance	uptake by HepG2 cells (cell permeability) ([1]; listed as aa 16-35)	intracellular distribution (confocal slicing) ([1]; listed as aa 16-35)	effect of heparin pretreatment on peptide entry ([2]; listed as aa 16-35)	effect of cytochalasin D pretreatment on peptide entry [2]	binding to peptide 1-50 (fluorescence) [3]	uptake by HepG2 cells (cell permeability) ([1]; listed as X-protein cell-permeable peptide 16-22)	uptake by HepG2 cells (cell permeability) ([1]; listed as aa 16-22)	intracellular distribution (confocal slicing) ([1]; listed as aa 16-22)	uptake of the peptide, cells positive ([1]; HepG2, 3 h, no FCS) [% cells positive]	effect of heparin pretreatment on peptide entry ([2]; listed as aa 16-22)
FITC-Acp-LCLRPVGAESRGRPVSGPFG [Peptide 16-35]	cell-permeable; also recorded: readily taken up by the cells	taken up into the cytoplasm and nucleus; also recorded: taken up into the cell cytoplasm, as well as into the nucleus	dependent on heparin binding; also recorded: effectively blocked peptide entry into the cells	no effect on the entry of the peptides into the cell	bound significantly more strongly to peptide 1-50; also recorded: binds to the X-protein N-terminal peptide 1-50	–	–	–	–	–
FITC-LCLRPVG ({FITC}-LCLRPVG) [Peptide 16-22]	–	–	–	no effect on the entry of the peptides into the cell	could not match the strong binding shown by the parental peptide 16-35	able to enter	cell-permeable, being taken up by cells at a level equivalent to that of the parental peptide aa 16-35; also recorded: taken up into the cells	taken up into both the cytoplasm and nucleus of cells	> 90	dependent on heparin binding; also recorded: effectively blocked peptide entry into the cells
